Parameters: species or system patients
Description: Another example study is now described. In this example study, 14 patients with a variety of intracranial pathologies (including low- and high-grade gliomas, meningioma, and intracranial lung metastases, as indicated in FIG. 17) were administered 20-mg/kg of ALA 3 hours prior to induction of anesthesia. The neurosurgeon performed a conventional standard craniotomy procedure with image-guidance using a surgical microscope modified for PpIX fluorescence. At the surgical bed, the surgeon acquired multiple sets of measurements using an example probe, with corresponding tissue specimens collected and processed for histopathological analysis. […] In addition, the surgeon scored the visible fluorescence as viewed through the fluorescence-capable surgical microscope (scores from 0-4). All specimens were assessed as either normal or abnormal, such that presence of tumor cells was assessed as abnormal.
Receiver-Operator Characteristic Analysis: The receiver-operator characteristic (ROC) curves were generated using the PpIX concentrations as the parameter comparing normal tissue to these tumor populations: all tumors, all gliomas, low-grade gliomas (LGGs), high-grade gliomas (HGGs), meningiomas and metastases. […] The uncorrected fluorescence metric was the magnitude of the PpIX fluorescence peak from the raw fluorescence spectrum, i.e. Fx,m at 635 nm (see Eqs. 1 and 4). […]

- tumor-to-normal (T/N) ratio of in vivo PpIX concentration (human): 200
SMILES: C=CC1=C(C)c2cc3[nH]c(cc4nc(cc5[nH]c(cc1n2)c(C)c5CCC(=O)O)C(CCC(=O)O)=C4C)c(C)c3C=C [PpIX, protoporphyrin IX]
- PpIX in abnormal tissue compared to normal tissue (in vivo): approximately at least five times more PpIX
